Drawing on US12558428B2, “Heterobifunctional compounds and their use in treating disease” (Halda Therapeutics OpCo, Inc., priority 2024, dated 2026), this text covers GI50 for 2 molecules.

In assay [1] the test system is T-Rex 293 cells lacking increased expression of estrogen receptor alpha protein. Nature of the assay: Cellular growth inhibition assay, T-Rex 293 cells, (−) doxycycline. Type of assay: cell-based. As to conditions: T-REx-293, 72 h, T-Rex 293 cells without doxycycline, 72 hours, CellTiter-Glo 2.0; read-out: (−) Dox TRex ERa (GI50). Summed up: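 ERα overexpression was switched on by 3 ng/mL doxycycline in a stably transfected T-Rex 293 clone, while uninduced cells served as the comparison line. Proliferation over 72 h of compound treatment was assessed by ATP luminescence, and GI50 values came from four-parameter curves.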
A general note: In ATP-based viability assays light output follows the ATP content of the culture.

Assay [2] has as its system MCF7 cells (ATCC #HTB-22). In words: Cellular growth inhibition assay, MCF7 cells purchased from ATCC. Type of assay: cell-based. As to conditions: Homo sapiens, MCF7, 144 h, Table 8-A; MCF7 cells purchased from ATCC; six days; CellTiter-Glo; read-out: GI50. Summed up: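 MCF7 cells in RPMI 1640 with 10% FBS and 0.2 U/ml insulin, seeded at 1,500 cells/well (ATCC) or 225 cells/well (ECACC). Compounds added 24 h later, then 6 days at 37° C. Viability by CellTiter-Glo 2.0 luminescence. GI50 from four-parameter fit.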

With `CCN(CCCCCCCCNC(=O)C[C@@H]1N=C(c2ccc(Cl)cc2)c2c(sc(C)c2C)-n2c(C)nnc21)CCOc1ccc(C(=O)c2c(-c3ccc(O)cc3)sc3cc(O)ccc23)cc1` [I-2, (S)-2-(4-(4-chlorophenyl)-2,3,9-trimethyl-6H-thieno[3,2-f][1,2,4]triazolo[4,3-a][1,4]diazepin-6-yl)-N-(8-(ethyl(2-(4-(6-hydroxy-2-(4-hydroxyphenyl)benzo[b]thiophene-3-carbonyl)phenoxy)ethyl)amino)octyl)acetamide], the GI50 in assay [1] and in assay [2] was 0.05 to 0.5 µM throughout.
Regarding `CCN(CCOCCOCCNC(=O)C[C@@H]1N=C(c2ccc(Cl)cc2)c2c(sc(C)c2C)-n2c(C)nnc21)CCOc1ccc(C(=O)c2c(-c3ccc(O)cc3)sc3cc(O)ccc23)cc1` [I-3, (S)-2-(4-(4-chlorophenyl)-2,3,9-trimethyl-6H-thieno[3,2-f][1,2,4]triazolo[4,3-a][1,4]diazepin-6-yl)-N-(2-(2-(2-(ethyl(2-(4-(6-hydroxy-2-(4-hydroxyphenyl)benzo[b]thiophene-3-carbonyl)phenoxy)ethyl)amino)ethoxy)ethoxy)ethyl) acetamide], the GI50 in assay [1] fell in the range of 0.5 to 2.5 µM; in assay [2] it was 0.05 to 0.5 µM.

The term GI50 denotes the concentration at which growth is held to half of that of the control.
